The subject of one test is COPD patients. To be noted: cilomilast: 15 mg orally twice daily; cited from earlier work.
The subject of test [1] is Dinitrofluorobenzene (DNFB)-induced delayed type hypersensitivity (DTH) response in pigs. Briefly: Pig model of atopic dermatitis: DNFB-induced DTH response, skin topical administration. Type of test: in vivo. The source says:
The pig DTH (delayed type hypersensitivity) model of contact hypersensitivity utilizes the Th2-mediated inflammatory response in pig skin to mimic the pathology of atopic dermatitis in humans. The model measures the potential anti-inflammatory effect of compounds, topically-applied to the skin, on the acute DTH (delayed type hypersensitivity) response in castrated male Yorkshire pigs.
In general in the assay, pigs (domestic Yorkshire pigs, 15-18 kg at time of sensitization, castrated males) are first sensitized by topical application of ca. 10% (w/v) dinitrofluorobenzene (DNFB) dissolved in DMSO:acetone:olive oil (ca. 1:5:3) (ca. 40 mg DNFB, 400 microlitre solution total) to the ears (outer) and groin (inner). The pigs are then challenged 12 days later with ca. 0.6% (w/v) DNFB applied to randomized sites on the shaved back of the pigs (ca. 90 micrograms/site; sites are identified and numbered by grid made with marking pen).
On the day of challenge, the treatments are performed at about 2 hours prior to and about 6 hours after challenge (for DMSO/acetone solutions/suspensions, to maximize exposure to drug), or at about 30 minutes after and about 6 hours after challenge (for topical ointments or creams, representing a more clinically relevant treatment protocol).
One day (about 24 hrs) after challenge, and optionally again at ca. 48 hrs post challenge, test sites are visually evaluated for intensity and extent of erythema by measuring the diameter of the reaction at its widest point and assigning scores of 0 to 4 for each of erythema intensity and erythema extent. Induration (a measure of swelling) is also scored 0 to 4. Scores for erythema intensity, erythema extent and induration are assigned according to the following criteria: Intensity of Erythema: 0=normal, 1=minimal, barely visible, 2=mild, 3=moderate, 4=severe. Extent of Erythema (not raised): 0=no edema, 1=macules of pin head size, 2=lentil sized macules, 3=confluent macules, 4=diffuse over entire site. Induration (palpable): 0=normal, 1=nodules of pin head size, 2=doughy lentil sized nodules, 3=confluent firm nodules, 4=diffuse hard lesion. The summed visual score at ca. 24 hours includes the individual scores for erythema intensity, erythema extent, and induration; so the maximal summed score for each site would be 12. High summed scores can generally indicate a high inflammatory response. Visual scores are subject to some inaccuracy/error.
Differences in the summed score between adjacent control (placebo) and treatment sites on the grids are calculated. This difference value is then used to determine the percent inhibition compared to the summed score for the control (placebo) sites. The more negative the difference value, the greater the calculated inhibition. Percent inhibition of (percent inhibition compared to) the mean summed score can be calculated.
About 24 hours after challenge, treatment sites can optionally also be visually evaluated for lesion area.
The anti-inflammatory effect of the compound of formula (I) (“free base” form), applied topically to the skin, on the acute DTH response in castrated male Yorkshire pigs is compared to that of another PDE4 inhibitor cipamfylline (BRL-61063) and the topical immunomodulator pimecrolimus.
In the above assay, the compound of formula (I) is topically administered: either (A) at ca. 2.5% (w/v) concentration in a solution of ca. 10% DMSO/90% acetone (ca. 50 microliters or ca. 1.5 mg/site) at about 2 hours prior to and about 6 hours after the DNFB challenge; or (B) at ca. 0.5% (w/w) concentration in an ointment containing propylene glycol (PG)*(ca. 25 mg of formulation/site) at about 30 minutes after and about 6 hours after the DNFB challenge. […]

Test [2] relates to atopic dermatitis patients. The note with it: 0.15% cream vs cream vehicle and hydrocortisone 17-butyrate (0.1%) cream; cited from earlier work.

The values that follow come from patent US7709497B2, “Pyrazolo[3,4-b]pyridine compound, and its use as a PDE4 inhibitor” (Glaxo Group Limited, priority 2004, dated 2010).

With `COc1ccc([C@]2(C#N)CC[C@@H](C(=O)O)CC2)cc1OC1CCCC1` [cilomilast], the “forced expiratory volume in 1s (FEV1) in COPD patients” value in the test with COPD patients is on record as “appears to improve forced expiratory volume in 1s (FEV1)”.

With `Nc1nc2c([nH]1)c(=O)n(CC1CC1)c(=O)n2CC1CC1` [cipamfylline, reference compound], in test [1] (ca. 0.25% (w/w) in ointment, not statistically significant), the “reduction in summed scores” value is on record as 6-7%. In test [1] (ca. 2.5% (w/v) in DMSO/acetone solution, vs vehicle alone, ca. 24 h after challenge), the “reduction in mean summed score” value is recorded as “about 8%”. Also, the “efficacy in treatment of atopic dermatitis patients” value in test [2] is on record as “significantly more effective than vehicle, but significantly less effective than hydrocortisone 17-butyrate (0.1%) cream”.

On to `CC[C@@H]1/C=C(\C)C[C@H](C)C[C@H](OC)[C@H]2O[C@@](O)(C(=O)C(=O)N3CCCC[C@H]3C(=O)O[C@H](/C(C)=C/[C@@H]3CC[C@H](Cl)[C@H](OC)C3)[C@H](C)[C@@H](O)CC1=O)[C@H](C)C[C@@H]2OC` [pimecrolimus, reference compound], for which the “inhibition of summed scores” value in test [1] (1% (w/w) cream formulation, p<0.05 by ANOVA) is “about 29%”.
